# In patent US20190231757A1, “COMBINATION OF SPLEEN TYROSINE KINASE INHIBITORS AND OTHER THERAPEUTIC AGENTS” (Takeda Pharmaceutical Company Limited, priority 2016, published 2019):
# Where a name gives a salt, the structure may show the parent alone.
# Legend:
# [1] = system: A20 mouse syngeneic B-cell lymphoma; experiment: Antitumor activity in Balb/c mice bearing A20 syngeneic B-cell lymphoma (Example 1); assay type: in vivo
# [2] = system: OCI-Ly10 human DLBCL xenografts; experiment: Antitumor activity in SCID mice bearing OCI-Ly10 human DLBCL xenografts, ibrutinib or bendamustine combination (Example 5); assay type: in vivo, mouse; conditions: Day 21; Compound A 60 mg/kg PO QD; ibrutinib 6 mg/kg PO QD; bendamustine 1 mg/kg IV BIW (6 doses); alone or combined with Compound A; citrate
# [3] = system: OCI-Ly10 human lymphoma xenografts; experiment: Antitumor activity in SCID mice bearing OCI-Ly10 human lymphoma xenografts, bendamustine and rituximab (Example 6); assay type: in vivo, mouse; conditions: Day 21, citrate
# [4] = system: OCI-LY10 xenografts; experiment: Antitumor activity in CB17 SCID mice bearing OCI-LY10 xenografts, gemcitabine combination (Example 7); assay type: in vivo, mouse; conditions: Day 21, alone or combined
# Method: Tumor growth inhibition was calculated on Day 21 of the study. The last measurement was taken on Day 42 of the study.
# (§1) Experimental design: Female CB17 SCID mice (Taconic Biosciences; weight at treatment start was 20 g) were inoculated subcutaneously in the flank (cell suspension) with 4.0×10^6 OCI-Ly10 cells. Tumor volume was calculated using the formula V=W^2×L/2, where V=volume, W=width and L=length of the tumor. When the mean tumor volume reached approximately 199 mm^3, the animals were randomized into 6 treatment groups (n=8/group). […] Tumor growth and body weight were measured twice per week. Tumor growth inhibition and body weight change were calculated on Day 21 of treatment.
# Statistical analysis: The differences in the tumor growth trends over time between pairs of treatment groups were assessed using linear mixed effects regression models. These models account for the fact that each animal was measured at multiple time points. A separate model was fit for each comparison, and the areas under the curve (AUC) for each treatment group were calculated using the predicted values from the model. The percent decrease in AUC (dAUC) relative to the reference group was then calculated. […] Further details regarding pairwise comparisons are provided in the Example 2.
# Drug combinations were assessed for synergy using observed AUC values. The change in AUC relative to the control was calculated for both single agent treatment groups as well as the combination group. The interaction between the two compounds was then assessed by comparing the change in AUC observed in the combination group to the sum of the changes observed in both single agents. The results can be divided into four categories: synergistic, additive, sub-additive, and antagonistic. Further details regarding combination analyses are provided in the Example 2.
# Once a final analysis was selected, the tumor measurements observed on a date pre-specified by the researcher (typically the last day of treatment) were analyzed to assess tumor growth inhibition. For this analysis, a T/C ratio was calculated for each animal by dividing the tumor measurement for the given animal by the mean tumor measurement across all control animals. The T/C ratios across a treatment group were compared to the T/C ratios of the control group using a two-tailed Welch's t-test.
# [5] = system: OCI-Ly10 human lymphoma xenografts; experiment: Antitumor activity in SCID mice bearing OCI-Ly10 human lymphoma xenografts, lenalidomide combination (Example 10); assay type: in vivo, mouse; conditions: alone or combined
# [6] = system: WSU-Luc human lymphoma xenografts; experiment: Antitumor activity in SCID mice bearing WSU-Luc human lymphoma xenografts, ibrutinib combination (Example 12); assay type: in vivo, mouse; conditions: Day 20, alone or combined
# Method: The study ended on Day 20 of dosing.
# Tumor growth was monitored with vernier calipers. Tumor volume was calculated using the formula V=W^2×L/2, where V=volume, W=width and L=length of the tumor. When the mean tumor volume reached approximately 190 mm^3, the animals were randomized into treatment groups (n=8/group). […] Tumor growth and body weight were measured twice per week. Tumor growth inhibition and body weight change were calculated on Day 20 of treatment.
# Statistical analysis: The differences in the tumor growth trends over time between pairs of treatment groups were assessed using linear mixed effects regression models. These models account for the fact that each animal was measured at multiple time points. A separate model was fit for each comparison, and the areas under the curve (AUC) for each treatment group were calculated using the predicted values from the model. The percent decrease in AUC (dAUC) relative to the reference group was then calculated.
# The change in AUC relative to the control was calculated for both single agent treatment groups as well as the combination group. […] The results can be divided into four categories: synergistic, additive, sub-additive, and antagonistic.
# For this analysis, a T/C ratio was calculated for each animal by dividing the tumor measurement for the given animal by the mean tumor measurement across all control animals. The T/C ratios across a treatment group were compared to the T/C ratios of the control group using a two-tailed Welch's t-test.
# [7] = system: Ly19 human lymphoma xenografts; experiment: Antitumor activity in SCID mice bearing Ly19 xenografts, rituximab combination (Example 14); assay type: in vivo, mouse; conditions: alone or combined
# [8] = Body weight and tolerability, OCI-LY10 ABT-199 study (Example 11); assay type: in vivo, mouse; conditions: alone or combined
# Method: as §1, with “(Charles River Laboratories, about 21 g” for “(Taconic Biosciences; weight”, “start)” for “start was 20 g)”, “cells. Tumor growth was monitored with vernier calipers.” for “cells.”, “175” for “199”, “into” for “into 6”, “(n=5/group).” for “(n=8/group).”
# [9] = system: sensitive cell systems; experiment: Activity in sensitive cell systems; assay type: cell-based
# [10] = Clinical activity in a recent study (response-evaluable subjects); assay type: in vivo; conditions: 3 DLBCL PR, 1 FL CR, 2 FL SD
# [11] = Compound A 60 mg/kg PO QD, anti-PD-1 10 mg/kg IP Q4D x3, alone or combined, Day 19
# [12] = Compound A 60 mg/kg PO QD, gemcitabine 2.5 mg/kg IP Q3D
# [13] = Compound A 60 mg/kg, ibrutinib 20 mg/kg
# [14] = Day 14, Compound A 60 mg/kg PO QD x14, rituximab 10 mg/kg IV QW x2
smiles,measurement,setting,value
"Cn1cc(-c2nc(N[C@@H]3CCCC[C@@H]3N)c(F)c3c2C(=O)NC3)cn1 [Compound A, 6-((1R,2S)-2-aminocyclohexylamino)-7-fluoro-4-(1-methyl-1H-pyrazol-4-yl)-1H-pyrrolo[3,4-c]pyridine-3 (2H)-one citrate]",Mean Tumor Volume (mm^3) ± SEM,"[1]; Compound A 60 mg/kg PO QD 21 d, anti-PD-1 10 mg/kg IP Q4D x3, alone or combined, Day 19","1,582.9 ± 317.2 mm^3"
same,T/C,[1]; [11],0.85
same,TGI (%),[1]; [11],15.3%
same,"dAUC (percent decrease in AUC, pairwise comparison)","[1]; reference 0.5% methylcellulose, Compound A 60 mg/kg, anti-PD-1 10 mg/kg, days >19 excluded",10.2
same,TGI,[2],38.8%
same,TGI,"[3]; Compound A 30 mg/kg PO QD x21, bendamustine 1 mg/kg IV BIW, rituximab 1 mg/kg IV QW x3, alone or combined",24.2%
same,TGI,"[3]; Compound A 60 mg/kg PO QD x21, 60 mg/kg",51.1%
same,Mean Tumor Volume (mm^3) ± SEM,[4]; [12],409.4 ± 55.2 mm^3
same,TGI (%),[4]; [12],65.5%
same,T/C,"[4]; Compound A 60 mg/kg, gemcitabine 2.5 mg/kg",0.35
same,TGI,"[5]; Day 21, Compound A 60 mg/kg PO QD x21, lenalidomide 10 mg/kg PO QD x21, citrate",43.6%
same,ΔAUC,"[5]; vs vehicle, Compound A 60 mg/kg, lenalidomide 10 mg/kg",34.7 (p < 0.001)
same,TGI (%),"[6]; Compound A 60 mg/kg PO QD, ibrutinib 20 mg/kg PO QD",37.6%
same,Mean Tumor Volume (mm^3) ± SEM,[6]; [13],680.4 ± 120.1 mm^3
same,T/C,[6]; [13],0.62
same,Mean Tumor Volume (mm^3) ± SEM at Day 14,[7]; [14],1594.0 ± 115.6 mm^3
same,TGI (%),[7]; [14],36.6%
same,dAUC,"[7]; vs vehicle, Compound A 60 mg/kg, rituximab 10 mg/kg",11.5
same,% BW Change (Day Maximum),"[8]; Compound A 60 mg/kg PO QD 21 d, ABT-199 12.5 mg/kg PO QD 21 d",−0.0 (3) %
same,Number of animals removed,"[8]; Compound A 60 mg/kg, ABT-199 12.5 mg/kg",0
same,EC50,[9],25 to 400 nM
same,response-evaluable subjects who responded to treatment,[10],6 of the 20
